Measurements: patent US9034793B2, “Use of ribose to enhance plant growth” (Bioenergy, Inc., priority 2002, dated 2015)

Test system: bean seeds
Assay: Plant growth and yield from bean seeds, daylight or darkness (Example 2)
Format: in vivo
Description: Three different treatments were explored on bean seeds to determine the effects of ribose (at two different doses) on plant growth and proliferation. [The three treatments include control (plain water), a 0.1332 M solution of ribose (5 g D-ribose dissolved in 250 ml water), and a 0.0666 M solution of ribose (5 g D-ribose dissolved in 500 ml water)]. The plants were kept under two different conditions, normal daylight and darkness. A total of six plants will be tested, with the conditions that each plant were tested at listed below. Treatments: [table] Each seed was planted under identical conditions (soil and pot size) and all at the same time. The environmental conditions (such as temperature and humidity), except for lighting, were kept constant for all the plants. Once potted, each seed received one to two tablespoons of treatment liquid (as mentioned above). A daily record was kept of the activity of each plant. Watering was done on every other day (or sooner if the soil was deemed too dry by the researcher), each again receiving one tablespoon of treatment liquid. Assessment of the effects of ribose fertilization was determined by measuring the time to the first appearance of a plant from the soil, the rate of growth, and leaf size. Table 3 represents the accumulated plant growth data from Example 2 and FIGS. 3 and 4 are graphic presentations of plant growth during light and dark conditions.

In the case of `O=C[C@H](O)[C@H](O)[C@H](O)CO` [5/500, D-ribose], the “Amount of Growth Between Measurements” value (Dark, Day 0 (17-Sep)) is reported as 0, the Plant growth-height (Dark, Day 0 (17-Sep)) is reported as 0 and the “Rate of Growth Between Measurements” value (Dark, Day 0 (17-Sep)) is reported as 0. The “Amount of Growth Between Measurements” value (Dark, Day 3 (20-Sep)) was 0, the Plant growth-height (Dark, Day 3 (20-Sep)) was 0 and the “Rate of Growth Between Measurements” value (Dark, Day 3 (20-Sep)) was 0. The “Amount of Growth Between Measurements” value (Dark, Day 5 (22-Sep)) was 0, the Plant growth-height (Dark, Day 5 (22-Sep)) was 0 and the “Rate of Growth Between Measurements” value (Dark, Day 5 (22-Sep)) was 0. For the same compound, the “Rate of Growth Overall Thru Date” value (Dark, Day 5 (22-Sep)) was 0, the “Amount of Growth Between Measurements” value (Dark, Day 7 (24-Sep)) was 5.2 and the Plant growth-height (Dark, Day 7 (24-Sep)) was 5.2. For the same compound, the “Rate of Growth Between Measurements” value (Dark, Day 7 (24-Sep)) was 2.60, the “Rate of Growth Overall Thru Date” value (Dark, Day 7 (24-Sep)) was 0.74 and the “Amount of Growth Between Measurements” value (Dark, Day 8 (25-Sep)) was 5.9. For the same compound, the Plant growth-height (Dark, Day 8 (25-Sep)) was 11.1, the “Rate of Growth Between Measurements” value (Dark, Day 8 (25-Sep)) was 5.90 and the “Rate of Growth Overall Thru Date” value (Dark, Day 8 (25-Sep)) was 1.39. For the same compound, the “Amount of Growth Between Measurements” value (Dark, Day 9 (26-Sep)) was 9.7, the Plant growth-height (Dark, Day 9 (26-Sep)) was 20.8 and the “Rate of Growth Between Measurements” value (Dark, Day 9 (26-Sep)) was 9.70. For the same compound, the “Rate of Growth Overall Thru Date” value (Dark, Day 9 (26-Sep)) was 2.31, the “Amount of Growth Between Measurements” value (Dark, Day 10 (27-Sep)) was 9.8 and the Plant growth-height (Dark, Day 10 (27-Sep)) was 30.6. For the same compound, the “Rate of Growth Between Measurements” value (Dark, Day 10 (27-Sep)) was 9.80, the “Rate of Growth Overall Thru Date” value (Dark, Day 10 (27-Sep)) was 3.06 and the “Amount of Growth Between Measurements” value (Dark, Day 11 (28-Sep)) was 5.2. The Plant growth-height (Dark, Day 11 (28-Sep)) was 35.8, the “Rate of Growth Between Measurements” value (Dark, Day 11 (28-Sep)) was 5.20 and the “Rate of Growth Overall Thru Date” value (Dark, Day 11 (28-Sep)) was 3.25. The “Amount of Growth Between Measurements” value (Dark, Day 12 (29-Sep)) was 3.5, the Plant growth-height (Dark, Day 12 (29-Sep)) was 39.3 and the “Rate of Growth Between Measurements” value (Dark, Day 12 (29-Sep)) was 3.50. For the same compound, the “Rate of Growth Overall Thru Date” value (Dark, Day 12 (29-Sep)) was 3.28, the “Amount of Growth Between Measurements” value (Dark, Day 13 (30-Sep)) was 5.5 and the Plant growth-height (Dark, Day 13 (30-Sep)) was 44.8. For the same compound, the “Rate of Growth Between Measurements” value (Dark, Day 13 (30-Sep)) was 5.50, the “Rate of Growth Overall Thru Date” value (Dark, Day 13 (30-Sep)) was 3.45 and the “Amount of Growth Between Measurements” value (Dark, Day 16 (3-Oct)) was 2. The Plant growth-height (Dark, Day 16 (3-Oct)) was 46.8, the “Rate of Growth Between Measurements” value (Dark, Day 16 (3-Oct)) was 0.67 and the “Rate of Growth Overall Thru Date” value (Dark, Day 16 (3-Oct)) was 2.93. For the same compound, the “Amount of Growth Between Measurements” value (Dark, Day 19 (6-Oct)) was 0, the Plant growth-height (Dark, Day 19 (6-Oct)) was 46.8 and the “Rate of Growth Between Measurements” value (Dark, Day 19 (6-Oct)) was 0.00. The “Rate of Growth Overall Thru Date” value (Dark, Day 19 (6-Oct)) was 2.46, the “Amount of Growth Between Measurements” value (Light, Day 0 (17-Sep)) was 0 and the Plant growth-height (Light, Day 0 (17-Sep)) was 0. For the same compound, the “Rate of Growth Between Measurements” value (Light, Day 0 (17-Sep)) was 0, the “Amount of Growth Between Measurements” value (Light, Day 3 (20-Sep)) was 0 and the Plant growth-height (Light, Day 3 (20-Sep)) was 0. For the same compound, the “Rate of Growth Between Measurements” value (Light, Day 3 (20-Sep)) was 0, the “Amount of Growth Between Measurements” value (Light, Day 5 (22-Sep)) was 0 and the Plant growth-height (Light, Day 5 (22-Sep)) was 0. For the same compound, the “Rate of Growth Between Measurements” value (Light, Day 5 (22-Sep)) was 0, the “Rate of Growth Overall Thru Date” value (Light, Day 5 (22-Sep)) was 0 and the “Amount of Growth Between Measurements” value (Light, Day 7 (24-Sep)) was 0. The Plant growth-height (Light, Day 7 (24-Sep)) was 0, the “Rate of Growth Between Measurements” value (Light, Day 7 (24-Sep)) was 0 and the “Rate of Growth Overall Thru Date” value (Light, Day 7 (24-Sep)) was 0.00. For the same compound, the “Amount of Growth Between Measurements” value (Light, Day 8 (25-Sep)) was 0.5, the Plant growth-height (Light, Day 8 (25-Sep)) was 0.5 and the “Rate of Growth Between Measurements” value (Light, Day 8 (25-Sep)) was 0.50. The “Rate of Growth Overall Thru Date” value (Light, Day 8 (25-Sep)) was 0.06, the “Amount of Growth Between Measurements” value (Light, Day 9 (26-Sep)) was 1.6 and the Plant growth-height (Light, Day 9 (26-Sep)) was 2.1. For the same compound, the “Rate of Growth Between Measurements” value (Light, Day 9 (26-Sep)) was 1.60, the “Rate of Growth Overall Thru Date” value (Light, Day 9 (26-Sep)) was 0.23 and the “Amount of Growth Between Measurements” value (Light, Day 10 (27-Sep)) was 8.4. For the same compound, the Plant growth-height (Light, Day 10 (27-Sep)) was 10.5, the “Rate of Growth Between Measurements” value (Light, Day 10 (27-Sep)) was 8.40 and the “Rate of Growth Overall Thru Date” value (Light, Day 10 (27-Sep)) was 1.05. The “Amount of Growth Between Measurements” value (Light, Day 11 (28-Sep)) was 6.1, the Plant growth-height (Light, Day 11 (28-Sep)) was 16.6 and the “Rate of Growth Between Measurements” value (Light, Day 11 (28-Sep)) was 6.10. For the same compound, the “Rate of Growth Overall Thru Date” value (Light, Day 11 (28-Sep)) was 1.51, the “Amount of Growth Between Measurements” value (Light, Day 12 (29-Sep)) was 5.9 and the Plant growth-height (Light, Day 12 (29-Sep)) was 22.5. The “Rate of Growth Between Measurements” value (Light, Day 12 (29-Sep)) was 5.90, the “Rate of Growth Overall Thru Date” value (Light, Day 12 (29-Sep)) was 1.88 and the “Amount of Growth Between Measurements” value (Light, Day 13 (30-Sep)) was 3.8. For the same compound, the Plant growth-height (Light, Day 13 (30-Sep)) was 26.3, the “Rate of Growth Between Measurements” value (Light, Day 13 (30-Sep)) was 3.80 and the “Rate of Growth Overall Thru Date” value (Light, Day 13 (30-Sep)) was 2.02. The “Amount of Growth Between Measurements” value (Light, Day 16 (3-Oct)) was 2.1, the Plant growth-height (Light, Day 16 (3-Oct)) was 28.4 and the “Rate of Growth Between Measurements” value (Light, Day 16 (3-Oct)) was 0.70. The “Rate of Growth Overall Thru Date” value (Light, Day 16 (3-Oct)) was 1.78, the “Amount of Growth Between Measurements” value (Light, Day 19 (6-Oct)) was 0.6 and the Plant growth-height (Light, Day 19 (6-Oct)) was 29. The “Rate of Growth Between Measurements” value (Light, Day 19 (6-Oct)) was 0.20 and the “Rate of Growth Overall Thru Date” value (Light, Day 19 (6-Oct)) was 1.53.
